Results from PMC9000336, “Development of Bicyclo[3.1.0]hexane-Based A3 Receptor Ligands: Closing the Gaps in the Structure–Affinity Relationships” (Molecules, 2022).

Columns and labels:
[1] = molecular target: T1, human adenosine A3 receptor (Homo sapiens, UniProt P0DMS8); assay: Radioligand displacement assay, human adenosine A3 receptor ([3H]PSB11, CHOhA3R membranes); type: binding; settings: n = 3; for Ki: footnote a: tested at 1 µM, read-out: A3 Ki (bound, footnote a); for A3 displacement at 1 µM: footnote a: test compound 1 µM
T1 construct: expressed in transfected cells; host or cells: CHO cells (CHOhA3R), gift of Dr. K.-N. Klotz (University of Würzburg); membrane preparation
T1 sequence (P0DMS8 1-318): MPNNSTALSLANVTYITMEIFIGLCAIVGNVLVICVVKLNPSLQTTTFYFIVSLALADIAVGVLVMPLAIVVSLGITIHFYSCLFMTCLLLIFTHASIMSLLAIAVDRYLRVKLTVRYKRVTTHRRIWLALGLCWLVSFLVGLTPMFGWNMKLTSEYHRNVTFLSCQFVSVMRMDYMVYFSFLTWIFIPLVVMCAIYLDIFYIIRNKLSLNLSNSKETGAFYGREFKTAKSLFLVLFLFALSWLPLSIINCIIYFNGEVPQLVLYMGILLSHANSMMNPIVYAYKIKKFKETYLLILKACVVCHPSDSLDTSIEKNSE
Procedure: Chinese hamster ovary (CHO) cells stably expressing the human adenosine A1 receptor (CHOhA1R) were kindly provided by Prof. S. J. Hill and CHO cells stably expressing the human adenosine A3 receptor (CHOhA3R) were a gift from Dr. K.-N. Klotz (University of Würzburg, Germany). Chinese hamster ovary cells stably expressing the human A1-receptor (CHOhA1R) or the human A3-receptor (CHOhA3R) were grown in Dulbecco’s Modified Eagle’s Medium (DMEM) and Ham’s F12 medium (1:1) supplemented with 10% (v/v) newborn calf serum, 50 µg/mL streptomycin, 50 IU/mL penicillin, and 200 µg/mL G418 at 37 °C and 5% CO2. […] All cells were grown to 80–90% confluency and detached from plates by scraping them into 5 mL phosphate-buffered saline. Detached cells were collected and centrifuged at 200 g for 5 min. Pellets derived from 100 15 cm Ø plates were pooled and resuspended in 70 mL of ice-cold 50 mM tris(hydroxymethyl)aminomethane (Tris)-HCl buffer, pH 7.4. A Heidolph Diax 900 homogenizer was used to homogenize the cell suspension. Membranes and the cytosolic fraction were separated by centrifugation at 100,000 g in a Beckman Optima LE-80 K ultracentrifuge (Beckman Coulter, Fullerton, CA, USA) at 4 °C for 20 min. The pellet was resuspended in 35 mL of the Tris-HCl buffer, and the homogenization and centrifugation steps were repeated. Tris-HCl buffer (25 mL) was used to resuspend the pellet, and adenosine deaminase (ADA) was added (0.8 U/mL) to break down endogenous adenosine. Membranes were stored in 250 µL and 500 µL aliquots at −80 °C. Total protein concentrations were measured using the bicinchoninic acid (BCA) method.
A3 Receptor: Membrane aliquots containing 15 µg (CHOhA3R) total protein were incubated in a total volume of 100 µL assay buffer (50 mM Tris-HCl, pH 8.0, supplemented with 10 mM MgCl2, 1 mM EDTA and 0.01% (w/v) CHAPS) at 25 °C for 2 h. Radioligand displacement experiments were performed using six concentrations of competing ligand in the presence of 10 nM [^3H]8-ethyl-4-methyl-2-phenyl-(8R)-4,5,7,8-tetrahydro-1H-imidazo[2.1-i]purin-5-one ([^3H]PSB11). […] Nonspecific binding was determined in the presence of 100 µM NECA. Incubations were terminated by rapid vacuum filtration to separate the bound and free radioligand through prewetted 96-well GF/B filter plates using a PerkinElmer Filtermate-harvester (Perkin Elmer, Groningen, The Netherlands). Filters were subsequently washed 12 times with ice-cold 50 mM Tris-HCl supplemented with 10 mM MgCl2, and 1 mM EDTA, pH 8.0 for CHOhA3R.
(§1) The plates of all four adenosine receptor assays were dried at 55 °C after which MicroscintTM-20-cocktail was added (Perkin Elmer, Groningen, The Netherlands).
(§2) All experimental data were analyzed using the non-linear regression curve fitting program GraphPad Prism 7.0 (GraphPad Software Inc., San Diego, CA, USA). IC50 values obtained from competition displacement binding data were converted into Ki values using the Cheng–Prusoff equation.

[2] = molecular target: T2, human adenosine A2A receptor (Homo sapiens, UniProt P29274); assay: Radioligand displacement assay, human adenosine A2A receptor ([3H]ZM241385, HEK293hA2AR membranes); type: binding; settings: n = 3; for Ki: footnote a: tested at 1 µM, read-out: A2A Ki (bound, footnote a)
T2 construct: expressed in transfected cells; host or cells: HEK293 cells (HEK293hA2AR), from Dr. J. Wang (Biogen/IDEC); membrane preparation
T2 sequence (P29274 whole entry): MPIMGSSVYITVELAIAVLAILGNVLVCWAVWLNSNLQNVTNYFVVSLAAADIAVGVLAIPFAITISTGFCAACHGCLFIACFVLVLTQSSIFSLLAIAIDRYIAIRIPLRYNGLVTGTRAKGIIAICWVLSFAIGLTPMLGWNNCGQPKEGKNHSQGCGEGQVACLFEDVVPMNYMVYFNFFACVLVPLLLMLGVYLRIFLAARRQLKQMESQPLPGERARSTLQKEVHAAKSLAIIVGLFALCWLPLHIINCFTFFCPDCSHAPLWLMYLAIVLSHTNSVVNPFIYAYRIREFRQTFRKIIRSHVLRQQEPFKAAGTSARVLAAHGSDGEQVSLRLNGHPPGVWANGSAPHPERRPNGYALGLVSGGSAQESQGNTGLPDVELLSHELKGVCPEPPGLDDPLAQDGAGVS
Procedure: Human embryonic kidney 293 cells stably expressing the human adenosine A2A receptor (HEK293hA2AR) were kindly provided by Dr. J. Wang (Biogen/IDEC, Cambridge, MA, USA), CHO-spap cells stably expressing the wild-type (WT) hA2B receptor (CHO-spap-hA2BR) were kindly provided by S. J. Dowell (GlaxoSmithKline, Brentfort, UK).
All cells were grown to 80–90% confluency and detached from plates by scraping them into 5 mL phosphate-buffered saline. Detached cells were collected and centrifuged at 200 g for 5 min. Pellets derived from 100 15 cm Ø plates were pooled and resuspended in 70 mL of ice-cold 50 mM tris(hydroxymethyl)aminomethane (Tris)-HCl buffer, pH 7.4. A Heidolph Diax 900 homogenizer was used to homogenize the cell suspension. Membranes and the cytosolic fraction were separated by centrifugation at 100,000 g in a Beckman Optima LE-80 K ultracentrifuge (Beckman Coulter, Fullerton, CA, USA) at 4 °C for 20 min. The pellet was resuspended in 35 mL of the Tris-HCl buffer, and the homogenization and centrifugation steps were repeated. Tris-HCl buffer (25 mL) was used to resuspend the pellet, and adenosine deaminase (ADA) was added (0.8 U/mL) to break down endogenous adenosine. Membranes were stored in 250 µL and 500 µL aliquots at −80 °C. Total protein concentrations were measured using the bicinchoninic acid (BCA) method.
Nonspecific binding was determined in the presence of 100 µM adenosine-5-N-ethyluronamide (NECA). Incubations were terminated by rapid vacuum filtration to separate the bound and free radioligand through prewetted 96-well GF/B filter plates using a PerkinElmer Filtermate-harvester (Perkin Elmer, Groningen, The Netherlands). Filters were subsequently washed 12 times with ice-cold 50 mM Tris-HCl, pH 7.4.
as §1, §2

Row | Compound | inhibition at 10 µM ([1]; test compound 10 µM) [%] | A2A displacement at 10 µM ([2]; test compound 10 µM) [%] | Ki [1] [nM] | Ki [2] [nM] | A3 displacement at 1 µM [1] [% ^a]
1 | CSc1nc(N)c2ncn([C@H]3[C@H](O)[C@H](O)[C@]4(Cn5cc(CN)nn5)C[C@H]34)c2n1 [Compound 43, (1R,2R,3S,4R,5S)-4-(6-Amino-2-methylthio-9H-purin-9-yl)-1-{[4-(aminomethyl)-1H-1,2,3-triazol-1-yl]methyl}bicyclo[3.1.0]hexane-2,3-diol] | 13 | 3 |  |  | 
2 | CSc1nc(N)c2ncn([C@H]3[C@H](O)[C@H](O)[C@]4(Cn5cc(C(=O)O)nn5)C[C@H]34)c2n1 [Compound 44, 1-{[(1R,2R,3S,4R,5S)-4-(6-Amino-2-methylthio-9H-purin-9-yl)-2,3-dihydroxybicyclo[3.1.0]hex-1-yl]methyl}-1H-1,2,3-triazole-4-carboxylic acid] |  |  | > 1000 | > 1000 | 
3 | CSc1nc(N)c2ncn([C@H]3[C@H](O)[C@H](O)[C@]4(Cn5cc(CC(=O)O)nn5)C[C@H]34)c2n1 [Compound 45, 2-(1-{[(1R,2R,3S,4R,5S)-4-(6-Amino-2-methylthio-9H-purin-9-yl)-2,3-dihydroxybicyclo[3.1.0]hex-1-yl]methyl}-1H-1,2,3-triazol-4-yl)acetic acid] |  |  | > 1000 | > 1000 | 
4 | CSc1nc(N)c2ncn([C@H]3[C@H](O)[C@H](O)[C@]4(Cn5cc(CCC(=O)O)nn5)C[C@H]34)c2n1 [Compound 46] |  |  | > 1000 | > 1000 | 
5 | CCN(CC)CC.CSc1nc(N)c2ncn([C@H]3[C@H](O)[C@H](O)[C@]4(CNc5c(O)c(=O)c5=O)C[C@H]34)c2n1 [Compound 47, Triethylammonium 2-{[(1R,2R,3S,4R,5S)-4-(6-Amino-2-methylthio-9H-purin-9-yl)-2,3-dihydroxybicyclo[3.1.0]hex-1-yl]methyl}amino-3,4-dioxocyclobut-1-en-1-olate] |  |  |  | > 1000 | 6
6 | CCN(CC)CC.CSc1nc(N)c2ncn([C@H]3[C@H](O)[C@H](O)[C@]4(CNS(=O)(=O)CC(=O)O)C[C@H]34)c2n1 [Compound 48, Triethylammonium 2-(N-{[(1R,2R,3S,4R,5S)-4-(6-amino-2-methylthio-9H-purin-9-yl)-2,3-dihydroxybicyclo[3.1.0]hex-1-yl]methyl}sulfamoyl)acetate] |  |  |  | > 1000 | 5
